According to patent US10428159B2, “Blocking monoclonal antibodies to AGR2 and its receptor C4.4A” (Board of Regents, The University of Texas System, priority 2014, dated 2019):

Experiments:
AsPC-1 cells [1] = assay: Model 1 AsPC-1 aggressive cell model, orthotopic tumors; format: in vivo, athymic nude mice
Protocol: In vivo studies. In vivo experiments were conducted with athymic nude mice (B6.Cg-Foxn1^nu/J—female—age 9 weeks) (NCI, Bethesda, Md.) according to the UT MDACC regulatory standards and IUCAC committee approval. Orthotopic tumors were developed with luciferase-labeled cells (0.25×10^6). IgG (Cat #OB010701; Southern Biotech, Birmingham, Ala.) served as a control Ab.
Model 1 (AsPC-1-Aggressive Cell Model)—Two weeks after the injection of the aggressive AsPC-1 cells, when the tumors weighed less than 0.5 g (as surgically confirmed from a parallel untreated group), mice (n=6) were treated with control or mAbs (5 mg each of AGR2/C4.4A mAb in combination/kg/body weight/twice a week/i.p) and with or without Gem (100 mg/kg body weight/once a week/i.p) until all of the control mice had died (seven weeks). Tumor weight and metastasis to liver and lung were compared between control and treated groups ex vivo at the end of the experiment.

BxPC-3 cells = assay: Apoptosis assay (Gem, rAGR2); format: cell-based; settings: BxPC-3, Gem 1 μM
Protocol: FIGS. 7A-D. Extracellular rAGR2-mediated functions. (A) Pancreatic cancer cells (BxPC-3 and MiaPaCa-2) were used for these studies. Extracellular addition of rAGR2 caused a significant dose-dependent increase in proliferation (BxPC-3-3-fold increase; MiaPaCa-2-4-fold increase; p<0.05). Pancreatic cancer cells were plated (2×10^4 cells) with and without rAGR2 (0-100 nM) on a Boyden's chamber for migration studies (B) and on an invasion chamber for invasion studies (C). After 22 h, cells were fixed with methanol and stained by hematoxylin, and cells in 10 random fields at 100× magnification were photographed and counted. Extracellular addition of rAGR2 caused a significant dose-dependent increase in migration (BxPC-3-7-fold increase; MiaPaCa-2-3-fold increase) and invasion (BxPC-3-10-fold increase; MiaPaCa-2-3-fold increase). (D) For analysis of apoptosis, BxPC-3 cells were treated with and without Gem (1 μM) and AGR2 (100 nM). […] Data shown are mean±SE for 3 experiments (*p<0.05 vs. control).
Cell growth, migration, invasion and apoptosis assays. Wild-type and siRNA transfected PDAC cells were grown with rAGR2 (0-500 nM) in the presence and absence of antibodies (polyclonal commercial or newly developed mAbs) (1 μM). The medium was refreshed daily. Cell numbers were estimated after 48 h by MTS assay as described previously (Ramachandran et al., 2007). […]

AsPC-1 cells [2] = assay: Apoptosis assay (Gem, rAGR2, antibodies); format: cell-based; settings: AsPC-1, 5 μM Gem
Protocol: FIGS. 11A-D. Monoclonal antibodies developed bind respectively to AGR2 and C4.4A proteins and blocked their functions. From the endogenous lysate (SU86.86/Panc-1), AGR2 (18 kD) and C4.4A (50 kD) were identified by a panel of mAbs. […] Extra bands identified with the endogenous protein were re-confirmed with the recombinant protein. For apoptosis studies, AsPC-1 cells were treated without or with Gem (0.5 μM) and rAGR2 (100 nM) and with purified (A) AGR2 and (B) C4.4A Abs (1 μM). Commercially available Abs served as control. […] Horizontal line represents median apoptotic value. Data shown are mean±SE for 3 experiments (*p<0.05). (C,D) Binding assays were conducted with purified (C) AGR2 and (D) C4.4A Abs as selected from the apoptosis assay as having high blocking efficiency. ELISA assays were conducted by coating antigenic peptide (0.5 μg) and probed with respective purified Abs. Data shown are mean±SE for 3 experiments (*p <0.05). Based on high specificity and binding, clone 28B for AGR2 and 1A for C4.4A were selected. Purified Abs were also run on 4-20% gradient gel to check for the presence of heavy (50 kD) and light chains (25 kD).
Cell growth, migration, invasion and apoptosis assays. Wild-type and siRNA transfected PDAC cells were grown with rAGR2 (0-500 nM) in the presence and absence of antibodies (polyclonal commercial or newly developed mAbs) (1 μM). The medium was refreshed daily. […]

Question: Which “effect on tumor growth and metastasis incidence” value (AsPC-1 cells [1]; Gem 100 mg/kg once a week i.p., alone or in combination with the mAbs) does the source give for Nc1ccn([C@@H]2O[C@H](CO)[C@@H](O)C2(F)F)c(=O)n1 [Gem, Gemcitabine, reference compound] here?
Answer: no significant effect

Question: And the mice remained alive (AsPC-1 cells [1]; after four weeks of treatment (six weeks total), when all control Ab mice had died)?
Answer: 30%

Question: What about the increase in apoptosis (BxPC-3 cells) of the same molecule?
Answer: 1 fold

Question: What about the increase in apoptosis (AsPC-1 cells [2]) of the same molecule?
Answer: 3 fold
